Measurements from PubChem BioAssay AID2060483 (Molecular Pharmacology Branch, DTP, NCI, 2025).
Values joined by “and” are separate entries in the source; they are usually repeats but may differ in a detail not shown here. Equal entries are not always repeated.

Tested on: K24384-001-R-PDC complex spheroids, viability
Assay: Anticancer human tumor K24384-001-R-PDC patient-derived pancreatic adenocarcinoma cell line growth inhibition [GQUAD]
Conditions: for viability, T/C: stronger effect = lower value
Source text: DNA G-quadruplex Stabilizer Agents in Combinations in Complex Spheroids
A high-throughput screen of multi-cell type tumor spheroids was designed to identify active combinations of DNA G-quadruplex stabilizer agents and targeted small molecules. Complex spheroids include a stromal component modeled by human endothelial cells (HUVEC) and fibroblasts modeled by human mesenchymal stem cells (MSCs). The concentration ranges selected for each drug and investigational agent were based upon clinically achievable concentrations if the clinical Cmax of the agent was known.
Compounds. The drugs and investigational agents: pidnarulex (CX-5461; NSC782164), APTO-253 (NSC789042), BRACO-19 (NSC847499), peposertib (NSC802822), ceralasertib (NSC780249), elimusertib (NSC800525), camonsertib (NSC841442), AZD-1390 (NSC803789), olaparib (NSC753686), talazoparib (NSC767125), ART-558 (NSC835418), sotorasib (NSC818433), MRTX-1133 (NSC836407), SN-38 (NSC673596), topotecan (NSC609699), etoposide (NSC141540), doxorubicin (NSC123127), gemcitabine (NSC613327), 5-fluorouracil (NSC19893), paclitaxel (NSC125973), vemurafenib (NSC761431), panobinostat (NSC761190), R-306465 (JNJ-16241199; NSC773264), adavosertib (NSC754352), TP-3654 (NSC805149), carboplatin (NSC241240), KSQ-4279 (NSC840948), and staurosporine (NSC755774) were obtained from the National Cancer Institute (NCI) Developmental Therapeutics Program Chemical Repository (34). The FDA-approved anticancer drug set is available from the NCI Developmental Therapeutics Program. […] The stock solutions were prepared in dimethyl sulfoxide (DMSO, Sigma-Aldrich, St. Louis, MO, cat. D2650) at 800-fold the tested concentration and stored at -70 degrees C prior to their use. All drugs and investigational agents were tested over a range starting from a high concentration at or near the clinical Cmax and decreasing in half-log increments. If the clinical Cmax for an agent had not been determined, the highest concentration tested was 10 microM.
2.3 Cell Culture. All cells were maintained in an incubator at 37 degrees C and 5% CO2 with 95% humidity. The PDC lines were cultured according to standard operating procedures established by the NCI PDMR. All PDCs were thawed and cultured in Matrigel-coated flasks prepared with a working solution of 1X Ham's F-12 nutrient mix, without supplementation (Invitrogen, cat. 11765054), 100 U/mL penicillin-streptomycin (Invitrogen, cat. 15140122), and 2.5% Matrigel (Corning Inc., cat. 354248) for the first three passages. The 857933-349-R-J2-PDC line was cultured in 6C/Colon 1B media, which includes advanced DMEM/F-12 (Thermo Fisher Scientific, cat. 12634028), 10 mM HEPES (Thermo Fisher Scientific, cat. 15630080), 1X GlutaMAX supplement (Thermo Fisher Scientific, cat. 35050061), 0.1 mg/mL primocin (InvivoGen, cat. ant-pm-2), 10% defined fetal bovine serum, heat inactivated (HyClone Laboratories Inc., cat. SH30070.03HI), 50% L-WRN conditioned media (ATCC, cat. CRL-3276), 1.25 mM N-Acetyl-L-cysteine (Sigma-Aldrich, cat. A9165), 10 mM nicotinamide (Sigma-Aldrich, cat. N0636), 1X B-27 supplement (Thermo Fisher Scientific, cat. 17504044), 1X N-2 supplement (Thermo Fisher Scientific, cat. 17502048), 10 microM Y-27632 dihydrochloride (Tocris Bioscience, cat. 1254), and 50 ng/mL human EGF recombinant protein (Thermo Fisher Scientific, cat. PHG0311). The 485176-168-R4-J1-PDC line was cultured in Panc media, which includes all 6C/Colon 1B media components plus 100 ng/mL human FGF-10 (Thermo Fisher Scientific, cat. 100-26), 500 nM SB-431542 (Selleckchem, cat. S1067), and gastrin (Tocris, cat. 3006).
[…]
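Note: spheroids exposed to compounds for seven days.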

For `COc1ccc([C@@H](O)c2cc(-c3ncnc4cc(N5CCOCC5)ccc34)c(F)cc2Cl)nn1`, the viability, T/C (compound 0.0316 µM) was 92.4% and 98.4% and 120%, the viability, T/C (compound 0.1 µM) was 99.1% and 95.7% and 103% and the viability, T/C (compound 0.316 µM) was 103% and 83.4% and 83.3%. The viability, T/C (compound 1 µM) was 72.3% and 65% and 84.7%, the viability, T/C (compound 3.16 µM) was 48.4% and 44.9% and 56% and the viability, T/C (compound 10 µM) was 29.8% and 22.7% and 35.5%. For the same compound, the IC50 (curve of compound) was 2.66 µM and 2.31 µM and 4.74 µM.

For `C=CCn1c(=O)c2cnc(Nc3ccc(N4CCN(C)CC4)cc3)nc2n1-c1cccc(C(C)(C)O)n1`, the viability, T/C (compound 0.0316 µM) was 95.1% and 91% and 82%, the viability, T/C (compound 0.1 µM) was 83.3% and 71% and 74.8% and the viability, T/C (compound 0.316 µM) was 47.9% and 50.8% and 64%. For the same compound, the viability, T/C (compound 1 µM) was 20.5% and 17.9% and 22.7%, the viability, T/C (compound 3.16 µM) was 13.4% and 12.8% and 16.7% and the viability, T/C (compound 10 µM) was 19.4% and 15.9% and 18.2%. For the same compound, the IC50 (curve of compound) was 0.29 µM and 0.271 µM and 0.466 µM.

For `Cc1[nH]c2ccccc2c1CCNCc1ccc(/C=C/C(=O)NO)cc1` + CN(C)c1ccc(Nc2c3ccc(NC(=O)CCN4CCCC4)cc3nc3cc(NC(=O)CCN4CCCC4)ccc23)cc1, the IC50 (curve of first compound, second compound 0.0316 µM) was 0.139 µM, the IC50 (curve of first compound, second compound 0.1 µM) was 0.103 µM and the IC50 (curve of first compound, second compound 0.316 µM) was 0.101 µM. The IC50 (curve of first compound, second compound 1 µM) was 0.109 µM, the IC50 (curve of first compound, second compound 3.16 µM) was 0.0991 µM and the IC50 (curve of first compound, second compound 10 µM) was 0.0837 µM. For the same compound, the viability, T/C (second compound 0.0316 µM, first compound 0.000999 µM) was 106%, the viability, T/C (second compound 0.0316 µM, first compound 0.00316 µM) was 99% and the viability, T/C (second compound 0.0316 µM, first compound 0.00999 µM) was 101%. For the same compound, the viability, T/C (second compound 0.0316 µM, first compound 0.0316 µM) was 105%, the viability, T/C (second compound 0.0316 µM, first compound 0.0999 µM) was 67.5% and the viability, T/C (second compound 0.0316 µM, first compound 0.316 µM) was 6.39%. For the same compound, the viability, T/C (second compound 0.1 µM, first compound 0.000999 µM) was 113%, the viability, T/C (second compound 0.1 µM, first compound 0.00316 µM) was 106% and the viability, T/C (second compound 0.1 µM, first compound 0.00999 µM) was 107%. It also gave a viability, T/C (second compound 0.1 µM, first compound 0.0316 µM) of 105%, a viability, T/C (second compound 0.1 µM, first compound 0.0999 µM) of 51% and a viability, T/C (second compound 0.1 µM, first compound 0.316 µM) of 7.07%. For the same compound, the viability, T/C (second compound 0.316 µM, first compound 0.000999 µM) was 104%, the viability, T/C (second compound 0.316 µM, first compound 0.00316 µM) was 89.3% and the viability, T/C (second compound 0.316 µM, first compound 0.00999 µM) was 95.3%. The viability, T/C (second compound 0.316 µM, first compound 0.0316 µM) was 100%, the viability, T/C (second compound 0.316 µM, first compound 0.0999 µM) was 50.4% and the viability, T/C (second compound 0.316 µM, first compound 0.316 µM) was 4.91%. For the same compound, the viability, T/C (second compound 1 µM, first compound 0.000999 µM) was 93.5%, the viability, T/C (second compound 1 µM, first compound 0.00316 µM) was 100% and the viability, T/C (second compound 1 µM, first compound 0.00999 µM) was 114%. It also gave a viability, T/C (second compound 1 µM, first compound 0.0316 µM) of 103%, a viability, T/C (second compound 1 µM, first compound 0.0999 µM) of 53.4% and a viability, T/C (second compound 1 µM, first compound 0.316 µM) of 5.91%. The viability, T/C (second compound 3.16 µM, first compound 0.000999 µM) was 96.4%, the viability, T/C (second compound 3.16 µM, first compound 0.00316 µM) was 101% and the viability, T/C (second compound 3.16 µM, first compound 0.00999 µM) was 104%. It also gave a viability, T/C (second compound 3.16 µM, first compound 0.0316 µM) of 94.6%, a viability, T/C (second compound 3.16 µM, first compound 0.0999 µM) of 49.7% and a viability, T/C (second compound 3.16 µM, first compound 0.316 µM) of 6.33%. The viability, T/C (second compound 10 µM, first compound 0.000999 µM) was 90.7%, the viability, T/C (second compound 10 µM, first compound 0.00316 µM) was 91.7% and the viability, T/C (second compound 10 µM, first compound 0.00999 µM) was 101%. The viability, T/C (second compound 10 µM, first compound 0.0316 µM) was 97.1%, the viability, T/C (second compound 10 µM, first compound 0.0999 µM) was 41.8% and the viability, T/C (second compound 10 µM, first compound 0.316 µM) was 6.78%.
